Where two headings read alike, the source gives them in different places.
Key:
[1] = test system: HCV replicon cells; experiment: HCV replicon FRET / luciferase assay; format: cell-based, Hepatitis C virus
[2] = molecular target: T1, HCV NS5B RdRp genotype 1b (Hepatitis C virus genotype 1b, UniProt Q9WMX2); experiment: HCV NS5B RdRp enzyme assay (standard / modified); format: biochemical
T1 construct: The protein was expressed with an 18 amino acid C-terminal truncation to enhance the solubility; made in house; host or cells: E. coli BL21(DE3), pET21a vector

[3] = HCV replicon cells, FRET or luciferase activity
[4] = HCV NS5B RdRp genotype 1b enzyme

T1 sequence (Q9WMX2 2420-2992): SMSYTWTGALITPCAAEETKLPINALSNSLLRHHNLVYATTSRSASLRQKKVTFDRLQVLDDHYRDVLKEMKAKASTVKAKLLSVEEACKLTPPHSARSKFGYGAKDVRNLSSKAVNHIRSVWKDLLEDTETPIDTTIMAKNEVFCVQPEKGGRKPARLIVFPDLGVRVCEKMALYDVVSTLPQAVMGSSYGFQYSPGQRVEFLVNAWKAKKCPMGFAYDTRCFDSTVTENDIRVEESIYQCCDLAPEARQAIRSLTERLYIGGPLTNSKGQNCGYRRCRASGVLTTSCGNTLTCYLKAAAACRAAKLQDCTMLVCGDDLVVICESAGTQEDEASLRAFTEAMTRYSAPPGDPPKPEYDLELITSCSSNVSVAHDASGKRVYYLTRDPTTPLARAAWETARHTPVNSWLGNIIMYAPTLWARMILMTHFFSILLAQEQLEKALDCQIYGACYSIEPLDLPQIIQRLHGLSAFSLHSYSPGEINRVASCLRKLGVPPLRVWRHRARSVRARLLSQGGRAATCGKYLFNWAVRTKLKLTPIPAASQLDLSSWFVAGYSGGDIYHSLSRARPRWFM

With `CN1CC2CCC(C1)N2C(=O)C12CC1c1cc(OCc3ccccc3)ccc1-c1c(C3CCCCC3)c3ccc(C(=O)NS(=O)(=O)N(C)C)cc3n1C2` (stereo not drawn) [drawing 69] the EC50 [1, 3] was 1 to 500 nM and the IC50 [2, 4] was 1 to 500 nM.

`CN1CC2CCC(C1)N2C(=O)C12CC1c1cc(O)ccc1-c1c(C3CCCCC3)c3ccc(C(=O)NS(=O)(=O)N(C)C)cc3n1C2` (stereo not drawn) [drawing 70] was tested, and the EC50 [1, 3] was 1 to 500 nM and the IC50 [2, 4] was 1 to 500 nM.

`COc1ccc2c(c1)C1CC1(C(=O)N1C3CCC1CN(C)C3)Cn1c-2c(C2CCCCC2)c2ccc(C(=O)NS(C)(=O)=O)cc21` (stereo not drawn) [drawing 89] gave an EC50 ([1]; Hepatitis C virus) of 1 to 500 nM and an IC50 [2] of 1 to 500 nM.

Compound `CN1CC2CCC(C1)N2C(=O)C12CC1c1cc(OC(F)F)ccc1-c1c(C3CCCCC3)c3ccc(C(=O)NS(=O)(=O)N(C)C)cc3n1C2` (stereo not drawn) [drawing 90] has an EC50 ([1]; Hepatitis C virus) of 1 to 500 nM and an IC50 [2] of 1 to 500 nM.

`CCS(=O)(=O)NC(=O)c1ccc2c(C3CCCCC3)c3n(c2c1)CC1(C(=O)N2C4CCC2CN(C)C4)CC1c1cc(OC)ccc1-3` (stereo not drawn) [drawing 91] was tested, and the EC50 ([1]; Hepatitis C virus) was 1 to 500 nM and the IC50 [2] was 1 to 500 nM.

Work on `CCN(CC)C(=O)N1CC2CCC(C1)N2C(=O)C12CC1c1cc(OC)ccc1-c1c(C3CCCCC3)c3ccc(C(=O)NS(=O)(=O)C4CC4)cc3n1C2` (stereo not drawn) [drawing 92] yielded an EC50 ([1]; Hepatitis C virus) of 1 to 500 nM and an IC50 [2] of 1 to 500 nM.

Compound `CCN(CC)C(=O)N1CC2CCC(C1)N2C(=O)C12CC1c1cc(OC)ccc1-c1c(C3CCCCC3)c3ccc(C(=O)NS(=O)(=O)N4CCN(C)CC4)cc3n1C2` (stereo not drawn) [drawing 93] has an EC50 ([1]; Hepatitis C virus) of 1 to 500 nM and an IC50 [2] of 1 to 500 nM.

Work on `COc1ccc2c(c1)C1CC1(C(=O)N1C3CCC1CN(C)C3)Cn1c-2c(C2CCCCC2)c2ccc(C(=O)NS(=O)(=O)N3C[C@@H](C)O[C@@H](C)C3)cc21` (stereo partly drawn) [drawing 94] yielded an EC50 ([1]; Hepatitis C virus) of 1 to 500 nM and an IC50 [2] of 1 to 500 nM.

For `COc1ccc2c(c1)C1CC1(C(=O)N1C3CCC1CN(C)C3)Cn1c-2c(C2CCCCC2)c2ccc(C(=O)NS(=O)(=O)N3CCCCC3)cc21` (stereo not drawn) [drawing 95], the EC50 ([1]; Hepatitis C virus) was 1 to 500 nM and the IC50 [2] was 1 to 500 nM.

`CCN(C)S(=O)(=O)NC(=O)c1ccc2c(C3CCCCC3)c3n(c2c1)CC1(C(=O)N2C4CCC2CN(C)C4)CC1c1cc(OC)ccc1-3` (stereo not drawn) [drawing 96] was tested, and the EC50 ([1]; Hepatitis C virus) was 1 to 500 nM and the IC50 [2] was 1 to 500 nM.

For `CCN(CC)S(=O)(=O)NC(=O)c1ccc2c(C3CCCCC3)c3n(c2c1)CC1(C(=O)N2C4CCC2CN(C)C4)CC1c1cc(OC)ccc1-3` (stereo not drawn) [drawing 97], the EC50 ([1]; Hepatitis C virus) was 1 to 500 nM and the IC50 [2] was 1 to 500 nM.

Work on `COc1ccc2c(c1)C1CC1(C(=O)N1C3CCC1CN(C)C3)Cn1c-2c(C2CCCCC2)c2ccc(C(=O)NS(=O)(=O)N(C)C(C)C)cc21` (stereo not drawn) [drawing 98] yielded an EC50 ([1]; Hepatitis C virus) of 1 to 500 nM and an IC50 [2] of 1 to 500 nM.

With `COc1ccc2c(c1)C1CC1(C(=O)N1C3CCC1CN(C)C3)Cn1c-2c(C2CCCCC2)c2ccc(C(=O)NS(=O)(=O)N(C)C3CC3)cc21` (stereo not drawn) [drawing 99] the EC50 ([1]; Hepatitis C virus) was 1 to 500 nM and the IC50 [2] was 1 to 500 nM.

`COc1ccc2c(c1)C1CC1C(C(=O)N1C3CCC1CN(C)C3)n1c-2c(C2CCCCC2)c2ccc(C(=O)NS(=O)(=O)C3CC3)cc21` (stereo not drawn) [drawing 100] showed an EC50 ([1]; Hepatitis C virus) of 1 to 500 nM and an IC50 [2] of 1 to 500 nM.

`COc1ccc2c(c1)C1CC1(C(=O)N1C3CCC1CN(C)C3)Cn1c-2c(C2CCCCC2)c2ccc(C(=O)NS(=O)(=O)N3CCC3)cc21` (stereo not drawn) [drawing 101] gave an EC50 ([1]; Hepatitis C virus) of 1 to 500 nM and an IC50 [2] of 1 to 500 nM.

`COc1ccc2c(c1)C1CC1(C(=O)N1C3CCC1CN(C)C3)Cn1c-2c(C2CCCCC2)c2ccc(C(=O)NS(C)(=O)=O)cc21` (stereo not drawn) [drawing 102] was tested, and the EC50 [1, 3] was 1 to 500 nM and the IC50 [2, 4] was 1 to 500 nM.

Work on `CN1CC2CCC(C1)N2C(=O)C12CC1c1cc(OC(F)F)ccc1-c1c(C3CCCCC3)c3ccc(C(=O)NS(=O)(=O)N(C)C)cc3n1C2` (stereo not drawn) [drawing 103] yielded an EC50 [1, 3] of 1 to 500 nM and an IC50 [2, 4] of 1 to 500 nM.

`CCS(=O)(=O)NC(=O)c1ccc2c(C3CCCCC3)c3n(c2c1)CC1(C(=O)N2C4CCC2CN(C)C4)CC1c1cc(OC)ccc1-3` (stereo not drawn) [drawing 104] gave an EC50 [1, 3] of 1 to 500 nM and an IC50 [2, 4] of 1 to 500 nM.

`CCN(CC)C(=O)N1CC2CCC(C1)N2C(=O)C12CC1c1cc(OC)ccc1-c1c(C3CCCCC3)c3ccc(C(=O)NS(=O)(=O)C4CC4)cc3n1C2` (stereo not drawn) [drawing 105] gave an EC50 [1, 3] of 1 to 500 nM and an IC50 [2, 4] of 1 to 500 nM.

`CCN(CC)C(=O)N1CC2CCC(C1)N2C(=O)C12CC1c1cc(OC)ccc1-c1c(C3CCCCC3)c3ccc(C(=O)NS(=O)(=O)N4CCN(C)CC4)cc3n1C2` (stereo not drawn) [drawing 106] gave an EC50 [1, 3] of 1 to 500 nM and an IC50 [2, 4] of 1 to 500 nM.

In the case of `COc1ccc2c(c1)C1CC1(C(=O)N1C3CCC1CN(C)C3)Cn1c-2c(C2CCCCC2)c2ccc(C(=O)NS(=O)(=O)N3C[C@@H](C)O[C@@H](C)C3)cc21` (stereo partly drawn) [drawing 107], the EC50 [1, 3] is reported as 1 to 500 nM and the IC50 [2, 4] is reported as 1 to 500 nM.

Compound `COc1ccc2c(c1)C1CC1(C(=O)N1C3CCC1CN(C)C3)Cn1c-2c(C2CCCCC2)c2ccc(C(=O)NS(=O)(=O)N3CCCCC3)cc21` (stereo not drawn) [drawing 108] has an EC50 [1, 3] of 1 to 500 nM and an IC50 [2, 4] of 1 to 500 nM.

`CCN(C)S(=O)(=O)NC(=O)c1ccc2c(C3CCCCC3)c3n(c2c1)CC1(C(=O)N2C4CCC2CN(C)C4)CC1c1cc(OC)ccc1-3` (stereo not drawn) [drawing 109] was tested, and the EC50 [1, 3] was 1 to 500 nM and the IC50 [2, 4] was 1 to 500 nM.

`CCN(CC)S(=O)(=O)NC(=O)c1ccc2c(C3CCCCC3)c3n(c2c1)CC1(C(=O)N2C4CCC2CN(C)C4)CC1c1cc(OC)ccc1-3` (stereo not drawn) [drawing 110] was tested, and the EC50 [1, 3] was 1 to 500 nM and the IC50 [2, 4] was 1 to 500 nM.

Work on `COc1ccc2c(c1)C1CC1(C(=O)N1C3CCC1CN(C)C3)Cn1c-2c(C2CCCCC2)c2ccc(C(=O)NS(=O)(=O)N(C)C(C)C)cc21` (stereo not drawn) [drawing 111] yielded an EC50 [1, 3] of 1 to 500 nM and an IC50 [2, 4] of 1 to 500 nM.

`COc1ccc2c(c1)C1CC1(C(=O)N1C3CCC1CN(C)C3)Cn1c-2c(C2CCCCC2)c2ccc(C(=O)NS(=O)(=O)N(C)C3CC3)cc21` (stereo not drawn) [drawing 112] was tested, and the EC50 [1, 3] was 1 to 500 nM and the IC50 [2, 4] was 1 to 500 nM.

In the case of `COc1ccc2c(c1)C1CC1C(C(=O)N1C3CCC1CN(C)C3)n1c-2c(C2CCCCC2)c2ccc(C(=O)NS(=O)(=O)C3CC3)cc21` (stereo not drawn) [drawing 113], the EC50 [1, 3] is reported as 1 to 500 nM and the IC50 [2, 4] is reported as 1 to 500 nM.

Compound `COc1ccc2c(c1)C1CC1(C(=O)N1C3CCC1CN(C)C3)Cn1c-2c(C2CCCCC2)c2ccc(C(=O)NS(C)(=O)=O)cc21` (stereo not drawn) [drawing 114] has an EC50 [1, 3] of 1 to 500 nM and an IC50 [2, 4] of 1 to 500 nM.

With `CCC(C)S(=O)(=O)NC(=O)c1ccc2c(C3CCCCC3)c3n(c2c1)C[C@@]1(C(=O)N2C4CCC2CN(C)C4)C[C@H]1c1cc(OC)ccc1-3` (stereo partly drawn) [drawing 132] the EC50 ([1]; Hepatitis C virus) was 1 to 500 nM and the IC50 [2] was 1 to 500 nM.

Work on `CCC(C)S(=O)(=O)NC(=O)c1ccc2c(C3CCCCC3)c3n(c2c1)C[C@@]1(C(=O)N2C4CCC2CN(C)C4)C[C@H]1c1cc(OC)ccc1-3` (stereo partly drawn) [drawing 133] yielded an EC50 [1, 3] of 1 to 500 nM and an IC50 [2, 4] of 1 to 500 nM.
